Assays:
[1] = test system: Schistosoma japonicum; assay: Schistosomicidal-activity against adult Schistosoma japonicum at 10 uM incubated for 72 hrs by inverted microscopic method relative to control; assay type: functional
[2] = biological target: T1, Histone deacetylase 8 (Schistosoma mansoni, UniProt A5H660); assay: Inhibition of Schistosoma mansoni HDAC8 expressed in Escherichia coli using Fluor de Lys as substrate incubated for 90 mins by fluorescence method
T1 sequence (A5H660 whole entry): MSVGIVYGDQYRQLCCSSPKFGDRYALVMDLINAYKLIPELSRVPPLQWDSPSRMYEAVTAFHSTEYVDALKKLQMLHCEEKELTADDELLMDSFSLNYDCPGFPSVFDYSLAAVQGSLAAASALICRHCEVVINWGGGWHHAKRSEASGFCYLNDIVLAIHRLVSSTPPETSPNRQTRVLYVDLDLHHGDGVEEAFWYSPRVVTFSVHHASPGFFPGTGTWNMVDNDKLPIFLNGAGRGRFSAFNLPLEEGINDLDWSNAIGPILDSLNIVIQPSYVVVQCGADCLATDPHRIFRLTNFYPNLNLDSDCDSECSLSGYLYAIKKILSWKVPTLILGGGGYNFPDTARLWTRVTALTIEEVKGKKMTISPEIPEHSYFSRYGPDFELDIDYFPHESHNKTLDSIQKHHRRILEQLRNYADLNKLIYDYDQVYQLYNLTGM

[3] = biological target: Histone deacetylase 1 (Homo sapiens, UniProt Q13547); assay: Inhibition of human HDAC1 (1 to 482 reidue) expressed in sf9 cells using ZMAL(Cbz-(Ac)Lys-AMC as substrate preincubated for 90 mins followed by trypsin addition and measured after 20 mins by fluorimetric method
Chain of Histone deacetylase 1 (Q13547 whole entry): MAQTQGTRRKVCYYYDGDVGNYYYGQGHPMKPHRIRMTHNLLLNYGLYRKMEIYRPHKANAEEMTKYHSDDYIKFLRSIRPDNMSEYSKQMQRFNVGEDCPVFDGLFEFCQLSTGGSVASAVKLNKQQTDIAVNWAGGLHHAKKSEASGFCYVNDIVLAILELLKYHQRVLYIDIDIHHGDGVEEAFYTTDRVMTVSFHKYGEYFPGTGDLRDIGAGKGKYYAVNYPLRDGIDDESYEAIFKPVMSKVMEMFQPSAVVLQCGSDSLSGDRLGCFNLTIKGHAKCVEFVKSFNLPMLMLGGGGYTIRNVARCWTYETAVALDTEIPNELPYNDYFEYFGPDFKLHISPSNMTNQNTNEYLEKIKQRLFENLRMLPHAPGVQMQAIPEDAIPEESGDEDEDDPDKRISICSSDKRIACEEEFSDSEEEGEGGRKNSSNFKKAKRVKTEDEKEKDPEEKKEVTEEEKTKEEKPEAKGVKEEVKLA

[4] = biological target: T2, Protein deacetylase HDAC6 (Homo sapiens, UniProt Q9UBN7); assay: Inhibition of human HDAC6 using ZMAL(Cbz-(Ac)Lys-AMC as substrate preincubated for 90 mins followed by trypsin addition and measured after 20 mins by fluorimetric method
T2 sequence (Q9UBN7 whole entry): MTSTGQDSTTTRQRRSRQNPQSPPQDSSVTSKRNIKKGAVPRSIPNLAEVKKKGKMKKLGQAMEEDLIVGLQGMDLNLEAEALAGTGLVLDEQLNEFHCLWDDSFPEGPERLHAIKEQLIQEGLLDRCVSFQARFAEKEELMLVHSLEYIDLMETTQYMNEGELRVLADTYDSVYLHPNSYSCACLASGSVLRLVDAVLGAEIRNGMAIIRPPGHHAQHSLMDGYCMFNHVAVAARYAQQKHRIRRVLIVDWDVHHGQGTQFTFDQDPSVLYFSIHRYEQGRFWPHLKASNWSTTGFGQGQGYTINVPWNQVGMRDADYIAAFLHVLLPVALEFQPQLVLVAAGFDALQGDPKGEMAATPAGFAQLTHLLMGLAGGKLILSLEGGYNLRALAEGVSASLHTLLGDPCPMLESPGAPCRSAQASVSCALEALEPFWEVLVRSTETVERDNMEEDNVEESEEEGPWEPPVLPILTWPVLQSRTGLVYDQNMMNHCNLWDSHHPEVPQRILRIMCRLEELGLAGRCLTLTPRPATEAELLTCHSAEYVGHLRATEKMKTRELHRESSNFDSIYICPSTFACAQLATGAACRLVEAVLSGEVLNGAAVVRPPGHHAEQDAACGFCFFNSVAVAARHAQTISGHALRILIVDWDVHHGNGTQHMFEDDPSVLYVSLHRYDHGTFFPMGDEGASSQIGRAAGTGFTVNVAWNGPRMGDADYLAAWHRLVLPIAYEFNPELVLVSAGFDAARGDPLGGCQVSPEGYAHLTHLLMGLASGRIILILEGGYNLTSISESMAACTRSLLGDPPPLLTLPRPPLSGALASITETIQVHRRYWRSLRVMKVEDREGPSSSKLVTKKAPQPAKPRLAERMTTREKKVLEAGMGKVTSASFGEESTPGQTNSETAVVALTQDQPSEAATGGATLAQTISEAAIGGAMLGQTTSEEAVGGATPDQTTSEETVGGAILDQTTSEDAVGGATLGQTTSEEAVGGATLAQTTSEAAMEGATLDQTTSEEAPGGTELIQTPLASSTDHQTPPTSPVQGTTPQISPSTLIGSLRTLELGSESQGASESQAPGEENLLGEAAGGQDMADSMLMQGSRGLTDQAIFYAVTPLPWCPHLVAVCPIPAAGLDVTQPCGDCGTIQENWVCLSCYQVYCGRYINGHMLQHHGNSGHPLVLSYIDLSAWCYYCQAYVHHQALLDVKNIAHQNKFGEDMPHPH

[5] = biological target: T3, Histone deacetylase 8 (Homo sapiens, UniProt Q9BY41); assay: Inhibition of human HDAC8 using Fluor de Lys as substrate incubated for 90 mins by fluorescence method
T3 sequence (Q9BY41 whole entry): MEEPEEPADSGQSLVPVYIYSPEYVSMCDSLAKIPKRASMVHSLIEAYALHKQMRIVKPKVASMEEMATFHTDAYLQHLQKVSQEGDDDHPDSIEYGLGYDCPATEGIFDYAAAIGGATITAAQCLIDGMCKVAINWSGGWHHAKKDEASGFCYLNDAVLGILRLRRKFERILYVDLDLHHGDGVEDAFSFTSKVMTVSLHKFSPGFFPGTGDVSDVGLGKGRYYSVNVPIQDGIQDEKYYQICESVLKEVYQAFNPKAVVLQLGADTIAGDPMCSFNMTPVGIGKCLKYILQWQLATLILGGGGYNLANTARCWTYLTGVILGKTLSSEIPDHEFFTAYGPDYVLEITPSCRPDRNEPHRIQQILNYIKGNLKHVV

[6] = test system: Schistosoma mansoni; assay: Schistosomicidal-activity against Schistosoma mansoni schistosomula at 20 uM incubated for 48 hrs by Alamar Blue assay relative to control; assay type: functional
[7] = test system: Schistosoma mansoni; assay: Schistosomicidal-activity against Schistosoma mansoni schistosomula incubated for 48 hrs by Alamar Blue assay; assay type: functional, organism-based
[8] = test system: Schistosoma mansoni; assay: Antischistosomal activity against Schistosoma mansoni infected in NMRI mouse assessed as worm burden reduction at 100 mg/kg, po administered as single dose relative to control; assay type: functional; design: scale not given: the % may be the effect or the level left
[9] = test system: Schistosoma japonicum; assay: Antischistosomal activity against Schistosoma japonicum infected in ICR mouse assessed as total worm reduction at 250 mg/kg, po administered as single dose relative to control; assay type: functional; design: scale not given: the % may be the effect or the level left
[10] = test system: Schistosoma japonicum; assay: Antischistosomal activity against Schistosoma japonicum assessed as worm mortality at 10 ug/ml incubated for 72 hrs by microscopic method relative to control; assay type: functional; conditions: dose 10 µg/ml
[11] = biological target: T3, Histone deacetylase 8; assay: Inhibition of human HDAC8 using Fluor de Lys as substrate by fluorimetric method
[12] = biological target: T1, Histone deacetylase 8; assay: Inhibition of Schistosoma mansoni HDAC8 using fluorogenic substrate by fluorescence method
[13] = biological target: T4, HDAC1 (histone deacetylase 1) (Homo sapiens, UniProt Q13547); assay: Inhibition of human HDAC1 at 200 uM using Z-Lys(Ac)-AMC as substrate by fluorimetric method relative to control; conditions: HDAC1 enzyme, probe Z-Lys(Ac)-AMC
T4 sequence (Q13547 whole entry): as the sequence (Q13547 whole entry) above

[14] = biological target: T2, Protein deacetylase HDAC6; assay: Inhibition of human HDAC6 using Z-Lys(Ac)-AMC as substrate by fluorimetric method
[15] = biological target: T4, HDAC1 (histone deacetylase 1); assay: Inhibition of human HDAC1 using Z-Lys(Ac)-AMC as substrate at 1 uM by fluorimetric method relative to control; conditions: HDAC1 enzyme, probe Z-Lys(Ac)-AMC

O=C(CCl)N1CC(=O)N2CCc3sccc3C2C1 (configuration not stated)
Activity [1]: 100%

O=C(/C=C/c1ccccc1Oc1c(Cl)cccc1Cl)NO
IC50 [2]: 0.44 µM | IC50 [3]: 20.2 µM | IC50 [4]: 8.2 µM | IC50 [5]: 0.47 µM | Activity [6]: 89% | EC50 [7]: 6.5 µM

CC(C)NCC1CCc2cc(CO)c([N+](=O)[O-])cc2N1 (configuration not stated) [OXAMNIQUINE]
Activity [8]: 99.2%

O=C(C1CCCCC1)N1CC(=O)N2CCc3ccccc3C2C1 (configuration not stated) [PRAZIQUANTEL]
Activity [9]: 62.4% | Activity [1]: 37.5%

OC(CN1CCCCC1)Cn1c2ccc(Cl)cc2c2cc(Cl)ccc21 (configuration not stated)
Activity [10]: 100%

O=C(NO)c1cccc(C(=O)NOCc2ccc(Cl)cc2Cl)c1
IC50 [11]: 0.63 µM | IC50 [12]: 0.4 µM | inhibition at 200 µM [13]: 47.5% | IC50 [14]: 5.12 µM | inhibition at 1 µM [15]: < 10%

CCCCCCC(=O)N(O)C1CC(=O)C(c2ccc(Cl)cc2)C1=O (configuration not stated)
IC50 [2]: 5.5 µM | IC50 [3]: 3.98 µM | IC50 [4]: 2.65 µM | IC50 [5]: 7.69 µM

OC(CN1CCCC1)Cn1c2ccc(Cl)cc2c2cc(Cl)ccc21 (configuration not stated)
Activity [10]: 100%

O=C(/C=C/c1ccccc1Sc1ccc(Cl)cc1)NO
IC50 [2]: 0.18 µM | IC50 [3]: 7.7 µM | IC50 [4]: 3.2 µM | IC50 [5]: 0.18 µM | Activity [6]: 97% | EC50 [7]: 11.8 µM

Reference: ChEMBL document CHEMBL4811216, “Chemotherapy for human schistosomiasis: how far have we come? What's new? Where do we go from here?” (RSC Med Chem, 2020)
